Measured values reported in ChEMBL document CHEMBL1152764, “Penicilliols A and B, novel inhibitors specific to mammalian Y-family DNA polymerases” (Bioorg Med Chem, 2009).

Target: T1, DNA polymerase iota (Mus musculus, UniProt Q6R3M4)
T1 sequence (Q6R3M4 whole entry): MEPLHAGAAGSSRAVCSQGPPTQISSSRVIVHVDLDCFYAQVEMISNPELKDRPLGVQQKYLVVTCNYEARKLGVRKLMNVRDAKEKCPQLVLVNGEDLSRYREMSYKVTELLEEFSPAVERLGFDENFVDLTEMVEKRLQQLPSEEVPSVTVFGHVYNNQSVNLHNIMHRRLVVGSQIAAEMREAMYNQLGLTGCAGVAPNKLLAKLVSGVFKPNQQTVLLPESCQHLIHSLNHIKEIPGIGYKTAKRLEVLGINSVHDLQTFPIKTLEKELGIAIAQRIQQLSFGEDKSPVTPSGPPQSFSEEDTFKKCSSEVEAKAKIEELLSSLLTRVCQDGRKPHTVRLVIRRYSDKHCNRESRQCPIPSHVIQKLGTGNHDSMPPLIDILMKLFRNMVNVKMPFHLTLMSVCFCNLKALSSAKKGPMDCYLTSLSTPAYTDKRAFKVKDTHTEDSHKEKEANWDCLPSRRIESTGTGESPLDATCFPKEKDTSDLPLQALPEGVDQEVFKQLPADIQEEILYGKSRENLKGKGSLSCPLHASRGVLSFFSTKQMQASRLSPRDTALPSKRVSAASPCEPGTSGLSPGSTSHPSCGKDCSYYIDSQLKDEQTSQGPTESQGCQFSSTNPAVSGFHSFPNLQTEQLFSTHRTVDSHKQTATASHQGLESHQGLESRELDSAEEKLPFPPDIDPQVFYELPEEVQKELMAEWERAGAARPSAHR
Assay: Inhibition of mouse DNA polymerase iota

Row | SMILES | IC50 [µM]
1 | C/C=C/C(=O)C1=C(OC)OC(C)(/C=C/C=C/C(C)O)C1=O (configuration not stated) [PENICILLIOL A] | 19.8
2 | COC1=C(C(=O)CC(C)O)C(=O)C(C)(/C=C/C=C/C(C)O)O1 (configuration not stated) [PENICILLIOL B] | 32.5
